Assay results taken from patent US11708346B2, “Treatment and prevention of neuropathic pain with P2Y14 antagonists” (Saint Louis University, priority 2019, dated 2023).
“And” between values parts separate entries of the source, which are not always exact repeats. Equal entries are not always repeated. “Also recorded” adds a separate entry of the source.

Key:
[1] = tested on: CCI-induced mechano-allodynia; experiment: Chronic constriction injury (CCI) of the sciatic nerve, mechano-allodynia by von Frey filaments; assay type: in vivo, mouse; conditions: for Effect at 0.5 h (% ± SD), percent inhibition of mechano-allodynia / Effect at 1 h (% + SD), percent inhibition of mechano-allodynia / Effect at 2 h (% ± SD), percent inhibition of mechano-allodynia / Effect at 3 h (% ± SD), percent inhibition of mechano-allodynia / Effect at 5 h (% ± SD), percent inhibition of mechano-allodynia / Reversal of CCI-induced mechano-allodynia / ED50: day 7 post-CCI; for Effect at 0.5 h (% ± SD), percent inhibition of mechano-allodynia / Effect at 1 h (% + SD), percent inhibition of mechano-allodynia / Effect at 2 h (% ± SD), percent inhibition of mechano-allodynia / Effect at 3 h (% ± SD), percent inhibition of mechano-allodynia / Effect at 5 h (% ± SD), percent inhibition of mechano-allodynia: n = 3; for Reversal of CCI-induced mechano-allodynia: ipsilateral hind paw; for ED50: Mus musculus, ip, read-out: ED50 at 1 h (95% CI), reversal of mechano-allodynia, 1 h post drug
Method: Chronic constriction injury (CCI) to the sciatic nerve was performed using the Bennett model. […] Then the animals were placed on a sterile surgical field and the skin was wiped with topical antiseptic, Dermachlor solution (0.2% chlorhexidine gluconate). […] A small incision was created on the lateral side of the left hind limb parallel to the femur. The sciatic nerve was exposed and ligated on two sites about 1 mm apart above the trifurcation using silk sutures 6.0. The incision was closed with clips and lidocaine cream was applied.
Mice were acclimated to the testing mesh-rack for 30 min before behavioral measurements. All behavioral testing was performed in the morning. The baseline measurements were determined on day 0 before CCI procedure. On day 7 post-CCI, baseline behavior responses were assessed, beginning prior to drug administration. Following drug injection, the behaviors were evaluated at multiple time points. Mechano-allodynia was quantified according to the hind paw withdrawal response to von Frey filaments stimulation by the Dixon up-and-down method. […] In presence of a positive withdrawal response a lighter filament was applied. If a negative response occurred, a stronger filament was used. At least four readings are obtained after the first positive response and the pattern of response was converted to a 50% paw withdrawal threshold (PWT), using the method described by Chaplan et al., J. Neurosci.
Data are expressed as mean±SD and analyzed by two-tailed, two-way repeated measures ANOVA with Dunnett's post hoc comparisons to day 7 behavior. The percentage of reversal of peak CCI-induced pain afforded by each drug was calculated for each animal using their baseline and day 7 post CCI behavioral measures. % Reversal=(PWT(g)t−PWT(g)day7)/PWT(g)day0−PWT(g)day7)×100, where PWT(g)=paw withdrawal threshold, t=time after drug. […] All statistical analyses were performed using GraphPad Prism 8 (Graph Pad Inc., San Diego, Calif.). Significance was accepted at p<0.05.

CB1 cannabinoid receptor = biological target: T1, CB1 cannabinoid receptor (Homo sapiens, UniProt P21554); experiment: PRESTO-Tango agonist/antagonist assay; assay type: cell-based
T1 construct: expressed in transfected cells
Method: (§1) Synthesis of 7 was performed using a Sonogashira reaction (11 to 12), click reaction (13 to 14) and a Suzuki reaction (15 to 16) followed by two-step deprotection. […].

CB2 cannabinoid receptor = biological target: T2, CB2 cannabinoid receptor (Homo sapiens, UniProt P34972); experiment: PRESTO-Tango agonist/antagonist assay; assay type: cell-based
T2 construct: expressed in transfected cells
Method: as §1

hP2Y14R = biological target: T3, hP2Y14R (Homo sapiens, UniProt Q15391); experiment: Competitive fluorescent binding assay in whole CHO-hP2Y14R cells, tracer 20, flow cytometry; conditions: read-out: Human P2Y14R binding affinity (IC50)
T3 construct: expressed in transfected cells; host or cells: CHO
T3 sequence (Q15391 1-338): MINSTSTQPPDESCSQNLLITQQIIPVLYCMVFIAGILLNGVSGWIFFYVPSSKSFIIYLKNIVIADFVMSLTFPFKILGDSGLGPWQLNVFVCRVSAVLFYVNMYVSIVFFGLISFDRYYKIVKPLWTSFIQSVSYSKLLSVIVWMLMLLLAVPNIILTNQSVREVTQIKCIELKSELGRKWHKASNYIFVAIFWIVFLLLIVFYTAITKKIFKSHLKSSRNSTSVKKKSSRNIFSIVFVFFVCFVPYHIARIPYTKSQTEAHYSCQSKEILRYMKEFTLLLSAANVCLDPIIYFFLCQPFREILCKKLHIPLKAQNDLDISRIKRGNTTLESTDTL

mP2Y14R = biological target: T4, mP2Y14R (Mus musculus, UniProt Q9ESG6); conditions: read-out: Mouse P2Y14R binding affinity (IC50); mP2Y14R in HEK293 cells, tracer 20
T4 sequence (Q9ESG6 1-338): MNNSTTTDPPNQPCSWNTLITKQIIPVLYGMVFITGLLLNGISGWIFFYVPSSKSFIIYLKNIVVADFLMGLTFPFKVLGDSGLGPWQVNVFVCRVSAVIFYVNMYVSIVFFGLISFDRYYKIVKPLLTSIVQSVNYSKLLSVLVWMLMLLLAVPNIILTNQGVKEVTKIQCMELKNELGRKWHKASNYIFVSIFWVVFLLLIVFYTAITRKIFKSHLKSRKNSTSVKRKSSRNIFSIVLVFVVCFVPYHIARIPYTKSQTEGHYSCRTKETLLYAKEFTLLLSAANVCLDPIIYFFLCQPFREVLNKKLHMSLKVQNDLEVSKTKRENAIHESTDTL

5HT1D = 5HT1D (Homo sapiens, UniProt P28221); experiment: PDSP off-target binding; conditions: ± SEM
Sequence of 5HT1D (P28221 whole entry, species assumed): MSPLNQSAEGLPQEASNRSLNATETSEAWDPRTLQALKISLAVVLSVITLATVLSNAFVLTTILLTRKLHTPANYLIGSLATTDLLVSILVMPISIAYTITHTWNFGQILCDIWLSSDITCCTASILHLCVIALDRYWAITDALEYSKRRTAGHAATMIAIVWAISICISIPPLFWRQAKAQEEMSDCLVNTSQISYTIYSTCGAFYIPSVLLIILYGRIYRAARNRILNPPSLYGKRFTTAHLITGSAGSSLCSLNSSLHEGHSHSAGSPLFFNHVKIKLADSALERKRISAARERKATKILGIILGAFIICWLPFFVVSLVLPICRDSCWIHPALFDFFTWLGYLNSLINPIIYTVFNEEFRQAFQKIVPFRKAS

T1 sequence (P21554 whole entry): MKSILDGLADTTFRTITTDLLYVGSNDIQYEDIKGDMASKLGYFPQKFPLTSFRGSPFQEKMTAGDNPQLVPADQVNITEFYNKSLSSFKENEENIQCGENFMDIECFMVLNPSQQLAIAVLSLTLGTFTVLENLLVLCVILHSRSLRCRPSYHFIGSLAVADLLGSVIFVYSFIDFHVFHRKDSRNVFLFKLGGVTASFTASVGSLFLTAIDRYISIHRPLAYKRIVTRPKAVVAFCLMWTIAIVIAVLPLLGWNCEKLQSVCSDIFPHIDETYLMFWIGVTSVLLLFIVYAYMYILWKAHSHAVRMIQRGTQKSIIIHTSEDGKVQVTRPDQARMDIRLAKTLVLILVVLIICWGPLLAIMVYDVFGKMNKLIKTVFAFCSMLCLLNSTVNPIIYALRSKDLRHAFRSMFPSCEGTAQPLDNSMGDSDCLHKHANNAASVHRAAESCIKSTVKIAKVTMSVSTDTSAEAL
T2 sequence (P34972 whole entry): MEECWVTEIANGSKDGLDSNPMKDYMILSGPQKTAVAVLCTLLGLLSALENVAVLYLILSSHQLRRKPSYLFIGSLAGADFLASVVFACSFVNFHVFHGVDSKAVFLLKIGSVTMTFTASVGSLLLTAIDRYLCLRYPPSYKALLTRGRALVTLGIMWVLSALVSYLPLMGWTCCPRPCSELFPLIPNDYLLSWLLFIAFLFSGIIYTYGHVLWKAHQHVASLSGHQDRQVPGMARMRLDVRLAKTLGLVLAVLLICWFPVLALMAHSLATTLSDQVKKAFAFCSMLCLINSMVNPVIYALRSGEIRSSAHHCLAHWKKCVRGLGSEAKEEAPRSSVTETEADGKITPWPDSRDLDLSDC

Structure (SMILES) | Effect at 0.5 h (% ± SD), percent inhibition of mechano-allodynia ([1]; 10 μmol/kg, i.p.) [%] | Effect at 1 h (% + SD), percent inhibition of mechano-allodynia ([1]; 10 μmol/kg, i.p.) | Effect at 2 h (% ± SD), percent inhibition of mechano-allodynia ([1]; 10 μmol/kg, i.p.) [%] | Effect at 3 h (% ± SD), percent inhibition of mechano-allodynia ([1]; 10 μmol/kg, i.p.) [%] | Effect at 5 h (% ± SD), percent inhibition of mechano-allodynia ([1]; 10 μmol/kg, i.p.) [%] | Reversal of CCI-induced mechano-allodynia ([1]; 10 μmol/kg, i.p.) | IC50 (hP2Y14R) [nM] | IC50 (mP2Y14R) [nM] | further results
O=C(O)c1cc(-c2ccc(C3CCNCC3)cc2)c2ccc(-c3ccc(C(F)(F)F)cc3)cc2c1 [Compound 1, 4-[4-(piperidin-4-yl)phenyl]-7-[4-(rifluoromethyl)phenyl]-2-naphthoic acid] | 87.9 ± 12.9 | 100% and 100 ± 0.0% | 96.4 ± 6.2 | 78.6 ± 9.4 | 21.3 ± 14.1 | fully efficacious; also recorded: reversed the allodynia |  |  | Effect at 0.5 h (% ± SD), percent inhibition of mechano-allodynia ([1]; 1 μmol/kg, i.p.): 10.0 ± 17.3%; Effect at 1 h (% + SD), percent inhibition of mechano-allodynia ([1]; 1 μmol/kg, i.p.): 19.9 ± 17.3%; Effect at 2 h (% ± SD), percent inhibition of mechano-allodynia ([1]; 1 μmol/kg, i.p.): 10.0 ± 17.3%; Effect at 3 h (% ± SD), percent inhibition of mechano-allodynia ([1]; 1 μmol/kg, i.p.): 4.7 ± 8.2%; Effect at 5 h (% ± SD), percent inhibition of mechano-allodynia ([1]; 1 μmol/kg, i.p.): 4.7 ± 8.2%; Effect at 0.5 h (% ± SD), percent inhibition of mechano-allodynia ([1]; 3 μmol/kg, i.p.): 62.9 ± 18.7%; Effect at 1 h (% + SD), percent inhibition of mechano-allodynia ([1]; 3 μmol/kg, i.p.): 79.3 ± 2.2%; Effect at 2 h (% ± SD), percent inhibition of mechano-allodynia ([1]; 3 μmol/kg, i.p.): 76.9 ± 6.3%; Effect at 3 h (% ± SD), percent inhibition of mechano-allodynia ([1]; 3 μmol/kg, i.p.): 64.7 ± 17.2%; Effect at 5 h (% ± SD), percent inhibition of mechano-allodynia ([1]; 3 μmol/kg, i.p.): 8.7 ± 15.1%; ED50 ([1]; i.p.): 1.6 µmol/kg; IC50 (CB1 cannabinoid receptor): > 50000 nM; IC50 (CB2 cannabinoid receptor): > 50000 nM
O=C(O)c1cc(O)c2ccc(-c3ccc(C(F)(F)F)cc3)cc2c1 [Compound 2] | 23.4 ± 21.2 | 64.2 ± 24.9% | 59.8 ± 18.1 | 35.2 ± 22.2 | 0.0 ± 0.0 | reversed the allodynia | 3200 ± 640 | 1600 ± 250 | 
C#CCCCCN1CCC(c2ccc(-c3cc(C(=O)O)cc4cc(-c5ccc(C(F)(F)F)cc5)ccc34)cc2)CC1 [Compound 3] | 52.4 ± 23.3 | 75.9 ± 15.0% | 42.7 ± 9.6 | 9.6 ± 16.7 | 0.0 ± 0.0 |  | 76.3 ± 24.4 | 130 ± 30 | Ratio of protection at 3 h divided by the protection at 5 h (duration of action) ([1]; 10 μmol/kg i.p.): 0.13
CCC(=O)N1CCC(c2ccc(-c3cc(C(=O)O)cc4cc(-c5ccc(C(F)(F)F)cc5)ccc34)cc2)CC1 [Compound 5, 4-(4-(1-(Propionyl)piperidin-4-yl)phenyl)-7-(4-(trifluoromethyl)phenyl)-2-naphthoic acid] | 32.9 ± 5.7 | 77.2 ± 26.1% | 71.6 ± 19.8 | 55.7 ± 27.1 | 5.6 ± 6.4 |  | 41.8 ± 1.8 | 38 | 
O=C(O)c1cc(-c2ccc(C3CCNCC3)cc2)cc(-n2cc(-c3ccc(C(F)(F)F)cc3)nn2)c1 [Compound 6] | 52.4 ± 9.6 | 67.4 ± 7.0% | 57.2 ± 13.3 | 31.9 ± 16.8 | 12.7 ± 13.2 |  |  |  | Effect at 0.5 h (% ± SD), percent inhibition of mechano-allodynia ([1]; 1 μmol/kg, i.p.): 8.7 ± 15.1%; Effect at 1 h (% + SD), percent inhibition of mechano-allodynia ([1]; 1 μmol/kg, i.p.): 18.7 ± 21.3%; Effect at 2 h (% ± SD), percent inhibition of mechano-allodynia ([1]; 1 μmol/kg, i.p.): 18.7 ± 21.3%; Effect at 3 h (% ± SD), percent inhibition of mechano-allodynia ([1]; 1 μmol/kg, i.p.): 8.7 ± 7.6%; Effect at 5 h (% ± SD), percent inhibition of mechano-allodynia ([1]; 1 μmol/kg, i.p.): 8.7 ± 15.1%; Effect at 0.5 h (% ± SD), percent inhibition of mechano-allodynia ([1]; 3 μmol/kg, i.p.): 44.6 ± 16.6%; Effect at 1 h (% + SD), percent inhibition of mechano-allodynia ([1]; 3 μmol/kg, i.p.): 53.3 ± 24.2%; Effect at 2 h (% ± SD), percent inhibition of mechano-allodynia ([1]; 3 μmol/kg, i.p.): 44.6 ± 16.6%; Effect at 3 h (% ± SD), percent inhibition of mechano-allodynia ([1]; 3 μmol/kg, i.p.): 35.6 ± 11.7%; Effect at 5 h (% ± SD), percent inhibition of mechano-allodynia ([1]; 3 μmol/kg, i.p.): 0.0 ± 0.0%; In vivo efficacy compared with a comparator compound ([1]; 10 μmol/kg i.p., 6 vs 7, 4 vs 1): no statistical difference; ED50 ([1]; i.p.): 3.5 µmol/kg
NCCCNC(=O)c1ccc(-c2cc(C(=O)O)cc(-n3cc(-c4ccc(C(F)(F)F)cc4)nn3)c2)s1 [Compound 8] | 81.0 ± 6.9 | 91.5 ± 7.4% | 74.0 ± 28.5 | 30.9 ± 21.0 | 10.0 ± 17.3 |  | 169 ± 42 | 384 | Ki (5HT1D): 6700 nM; Emax, in vivo efficacy ([1]; 10 μmol/kg i.p.): 91.5%
NCCOCCOCCOCCOCCOCCOCCC(=O)N1CCC(c2ccc(-c3cc(C(=O)O)cc4cc(-c5ccc(C(F)(F)F)cc5)ccc34)cc2)CC1 [Compound 21] |  |  |  |  |  | fully efficacious |  |  | Time of peak protection ([1]; 10 μmol/kg i.p., after injection): 1 to 2 h; Effect on paw withdrawal threshold at the contralateral hind paw ([1]; 10 μmol/kg, i.p., versus vehicle control): No effect
